From patent publication US20190054097A1, “COMPOSITIONS TARGETING SENESCENT CELLS AND THE USES THEREOF” (BioVentures, LLC, priority 2016, published 2019) come the findings set out here.

Holding throughout (type): cell-based
One experiment concerns Normal WI38 (NSC). Briefly: Viability of normal WI38 cells, PI staining and flow cytometry, 72 hours. As for the experimental part:
(§1) Normal WI38 (NSC) and IR-induced senescent WI38 cells (IR-SC) were incubated with vehicle or increasing concentrations of compounds of Formula (I) or Formula (II) for 72 hours. The cells were digested with 0.25% trypsin and 1 mM EDTA, and harvested in PBS containing 2% FBS. After incubation with propidium iodide (PI, 100 ng/ml) in PBS at room temperature for 1 minute, cells were centrifuged at 1,200 rpm for 6 minutes to remove PI and then resuspended in PBS containing 2% FBS for analysis using a flow cytometer. Viable cells (PI− cells) were analyzed by flow cytometry at a constant flow rate to count the number of cells and calculated as a percentage of control cells treated with vehicle. Table 1 depicts the EC50 values of the compounds of Formula (I) and compounds of Formula (II) against normal WI38 and IR-induced senescent WI38.
For orientation: In flow cytometry, cells or beads pass a laser one at a time.

Experiment [1] relates to IR-induced senescent WI38 cells (IR-SC). Briefly: Viability of IR-induced senescent WI38 cells, PI staining and flow cytometry, 72 hours. To be noted: for EC50: IR-induced senescent WI38 cells, 72 hours, viable PI- cells as percentage of vehicle control; for Ratio NSC/SC: ratio of WI38 EC50 in normal cells to EC50 in IR-induced senescent cells. As for the experimental part: as §1

The next experiment concerns RS4; 11 cancer cells. Description: Cancer cell viability by MTS, 72 hours. To be noted: 11 cells. As for the experimental part:
(§2) RS4; 11 and NCI-H146 cancer cells were incubated with vehicle or increasing concentrations of compounds of Formula (I) and Formula (II). At 72 hours post-treatment cell viability was measured by MTS and EC50 was calculated as a percentage of control cells treated with vehicle. Table 1 depicts the EC50 values of compounds of Formula (I) and Formula (II) against RS4; 11 and NCI-H146.

Another experiment has as its system NCI-H146 cancer cells. Briefly: Cancer cell viability by MTS, 72 hours. As for the experimental part:
as §2

[2] abbreviates: Homo sapiens, WI-38, viable PI- cells as percentage of vehicle control.
Setting [3] is: viable PI- cells as percentage of vehicle control.

Like-named read-outs stand apart in the source and are kept apart here.

The EC50 is the concentration at which the effect is half-maximal. As for `CC1(C)CCC(c2ccc(Cl)cc2)=C(CN2CCN(c3ccc(C(=O)NS(=O)(=O)c4ccc(N[C@H](CCN5CCN(CCOCCOCCOCCNc6cccc7c6C(=O)N(C6CCC(=O)NC6=O)C7=O)CC5)CSc5ccccc5)c(S(=O)(=O)C(F)(F)F)c4)cc3)CC2)C1` (stereo partly drawn) [XZ-15418, 4-(4-((4′-chloro-4,4-dimethyl-3,4,5,6-tetrahydro-[1,1′-biphenyl]-2-yl)methyl)piperazin-1-yl)-N-((4-(((2R)-4-(4-(2-(2-(2-(2-((2-(2,6-dioxopiperidin-3-yl)-1,3-dioxoisoindolin-4-yl)amino)ethoxy)ethoxy)ethoxy)ethyl)piperazin-1-yl)-1-(phenylthio)butan-2-yl)amino)-3-((trifluoromethyl)sulfonyl)phenyl)sulfonyl)benzamide], the EC50 in the experiment on Normal WI38 (NSC) (setting [2]) was greater than 10 µM; in experiment [1] (Homo sapiens, WI-38), 0.172 µM; with RS4; 11 cancer cells (Homo sapiens) it was 0.0123 µM.
Take `CC1(C)CCC(c2ccc(Cl)cc2)=C(CN2CCN(c3ccc(C(=O)NS(=O)(=O)c4ccc(N[C@H](CCN5CCN(C(=O)CCCn6cc(COCCOCCNc7cccc8c7C(=O)N(C7CCC(=O)NC7=O)C8=O)nn6)CC5)CSc5ccccc5)c(S(=O)(=O)C(F)(F)F)c4)cc3)CC2)C1` (stereo partly drawn) [PZ-15227, 4-(4-((4′-chloro-4,4-dimethyl-3,4,5,6-tetrahydro-[1,1′-biphenyl]-2-yl)methyl)piperazin-1-yl)-N-((4-(((2R)-4-(4-(4-(4-((2-(2-((2-(2,6-dioxopiperidin-3-yl)-1,3-dioxoisoindolin-4-yl)amino)ethoxy)ethoxy)methyl)-1H-1,2,3-triazol-1-yl)butanoyl)piperazin-1-yl)-1-(phenylthio)butan-2-yl)amino)-3-((trifluoromethyl)sulfonyl)phenyl)sulfonyl)benzamide]: the EC50 with Normal WI38 (NSC) (setting [2]) is greater than 10 µM; in experiment [1] (Homo sapiens, WI-38), 0.108 µM; with NCI-H146 cancer cells (Homo sapiens), 0.0689 µM; in the experiment with RS4; 11 cancer cells (Homo sapiens), 0.114 µM. In experiment [1], the “Ratio NSC/SC” value is greater than 92.
For `CC1(C)CCC(CN2CCN(c3ccc(C(=O)NS(=O)(=O)c4ccc(NCC5CCN(C(=O)CCCn6cc(COCCOCCOCCNc7cccc8c7C(=O)N(C7CCC(=O)NC7=O)C8=O)nn6)CC5)c([N+](=O)[O-])c4)c(Oc4cnc5[nH]ccc5c4)c3)CC2)=C(c2ccc(Cl)cc2)C1` (stereo not shown) [XZ-14523, 2-((1H-pyrrolo[2,3-b]pyridin-5-yl)oxy)-4-(4-((4′-chloro-5,5-dimethyl-3,4,5,6-tetrahydro-[1,1′-biphenyl]-2-yl)methyl)piperazin-1-yl)-N-((4-(((1-(4-(4-((2-(2-(2-((2-(2,6-dioxopiperidin-3-yl)-1,3-dioxoisoindolin-4-14)amino)ethoxy)ethoxy)ethoxy)methyl)-1H-1,2,3-triazol-1-yl)butanoyl)piperidin-4-yl)methyl)amino)-3-nitrophenyl)sulfonyl)benzamide], the EC50 with Normal WI38 (NSC) (setting [3]) was greater than 10 µM; in experiment [1], greater than 10 µM; in the experiment on NCI-H146 cancer cells it was 1.26 µM; with RS4; 11 cancer cells, 0.161 µM.
For `CC(C)(C)OC(=O)N1CCN(CC#Cc2ccc(OCCCc3sc(N4CCc5cccc(C(=O)Nc6nc7ccccc7s6)c5C4)nc3C(=O)O)c(F)c2)CC1` [XZ-13861], the EC50 in the experiment on Normal WI38 (NSC) (setting [3]) came out at 32.8 µM; in experiment [1], 3.12 µM. Further, in experiment [1] (FIG. 2A, FIG. 2B, dose dependent), the “Selective inhibition of IR-SC WI38 cells versus normal WI38 cells” value is “selectively inhibits IR-SC WI38 cells but not normal WI38 cells in a dose-dependent manner”.
Consider `CC1(C)CCC(c2ccc(Cl)cc2)=C(CN2CCN(c3ccc(C(=O)NS(=O)(=O)c4ccc(N[C@H](CCN5CCN(C(=O)COCCOCCOCCNc6cccc7c6C(=O)N(C6CCC(=O)NC6=O)C7=O)CC5)CSc5ccccc5)c(S(=O)(=O)C(F)(F)F)c4)cc3)CC2)C1` (stereo partly drawn) [XZ-14510, 4-(4-((4′-chloro-4,4-dimethyl-3,4,5,6-tetrahydro-[1,1′-biphenyl]-2-yl)methyl)piperazin-1-yl)-N-((4-(((2R)-4-(4-(2-(2-(2-(2-((2-(2,6-dioxopiperidin-3-yl)-1,3-dioxoisoindolin-4-yl)amino)ethoxy)ethoxy)ethoxy)acetyl)piperazin-1-yl)-1-(phenylthio)butan-2-yl)amino)-3-((trifluoromethyl)sulfonyl)phenyl)sulfonyl)benzamide], for which the “Ratio NSC/SC” value in experiment [1] is on record as greater than 56.
